Key:
Bcr/Abl fusion protein = Bcr/Abl fusion protein (Homo sapiens, UniProt P00519); assay: Inhibition of wild type Bcr-Abl (unknown origin) using Abltide as substrate incubated for 1 hr by luminescence based ADP-glo assay; format: protein assay
[1] = Inhibition of Bcr-Abl T315Ialpha mutant (unknown origin) using Abltide as substrate incubated for 1 hr by luminescence based ADP-glo assay; set-up: species or system Homo sapiens
BaF3 [2] = assay: Antiproliferative activity against mouse BaF3 cells harbouring Bcr-Abl T315I assessed of cell viability at 30 uM incubated for 72 hrs by Celltiter-glo luminescent cell viability assay relative to control; format: functional
BaF3 [3] = assay: Antiproliferative activity against mouse BaF3 cells harbouring Bcr-Abl T315I assessed of cell viability at 10 uM incubated for 72 hrs by Celltiter-glo luminescent cell viability assay relative to control; format: functional
BaF3 [4] = assay: Antiproliferative activity against mouse BaF3 cells harbouring Bcr-Abl T315I assessed of cell viability at 2 uM incubated for 72 hrs by Celltiter-glo luminescent cell viability assay relative to control; format: functional
HEK293 = assay: Antiproliferative activity against HEK293 cells after 48 hrs by MTT assay; format: toxicity, cell-based; set-up: concentration or dose not given beside the values; settings: human, hek293, 48 h
THP-1 = assay: Antiproliferative activity against human THP-1 cells after 48 hrs by MTT assay; format: functional; set-up: concentration or dose not given beside the values
K562 = assay: cells; settings: Homo sapiens, K562, 48 h

Bcr/Abl fusion protein, sequence (P00519 whole entry, the tested form may be a part): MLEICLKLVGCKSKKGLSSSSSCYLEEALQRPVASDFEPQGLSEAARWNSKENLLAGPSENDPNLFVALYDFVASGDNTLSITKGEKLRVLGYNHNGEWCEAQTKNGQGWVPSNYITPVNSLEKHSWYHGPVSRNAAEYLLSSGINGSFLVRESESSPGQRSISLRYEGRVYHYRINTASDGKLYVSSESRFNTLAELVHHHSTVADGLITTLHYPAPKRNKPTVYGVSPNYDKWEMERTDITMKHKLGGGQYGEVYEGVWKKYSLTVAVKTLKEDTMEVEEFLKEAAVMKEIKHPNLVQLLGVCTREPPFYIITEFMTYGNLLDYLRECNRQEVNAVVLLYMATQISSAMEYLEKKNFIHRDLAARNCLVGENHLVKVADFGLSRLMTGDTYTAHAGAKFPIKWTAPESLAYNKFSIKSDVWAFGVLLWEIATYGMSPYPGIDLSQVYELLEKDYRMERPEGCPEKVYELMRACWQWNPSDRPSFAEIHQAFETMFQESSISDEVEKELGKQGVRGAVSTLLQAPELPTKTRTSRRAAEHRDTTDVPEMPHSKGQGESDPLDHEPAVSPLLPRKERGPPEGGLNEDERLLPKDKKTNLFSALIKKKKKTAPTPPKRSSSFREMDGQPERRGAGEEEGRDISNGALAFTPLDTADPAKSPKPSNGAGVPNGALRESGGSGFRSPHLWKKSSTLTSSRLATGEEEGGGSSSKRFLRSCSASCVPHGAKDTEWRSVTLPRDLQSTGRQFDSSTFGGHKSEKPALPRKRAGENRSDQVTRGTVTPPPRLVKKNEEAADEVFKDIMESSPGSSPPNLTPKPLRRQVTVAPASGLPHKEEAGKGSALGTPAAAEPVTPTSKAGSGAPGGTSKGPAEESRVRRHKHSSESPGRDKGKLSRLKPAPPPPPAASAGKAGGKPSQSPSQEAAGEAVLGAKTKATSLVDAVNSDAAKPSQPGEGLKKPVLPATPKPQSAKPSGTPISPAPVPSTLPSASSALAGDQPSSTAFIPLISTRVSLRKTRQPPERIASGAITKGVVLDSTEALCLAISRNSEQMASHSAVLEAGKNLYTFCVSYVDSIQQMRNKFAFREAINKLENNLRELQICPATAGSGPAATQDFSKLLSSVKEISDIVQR
Bcr/Abl fusion protein, sequence (P11274 whole entry, further chain, the tested form may be a part): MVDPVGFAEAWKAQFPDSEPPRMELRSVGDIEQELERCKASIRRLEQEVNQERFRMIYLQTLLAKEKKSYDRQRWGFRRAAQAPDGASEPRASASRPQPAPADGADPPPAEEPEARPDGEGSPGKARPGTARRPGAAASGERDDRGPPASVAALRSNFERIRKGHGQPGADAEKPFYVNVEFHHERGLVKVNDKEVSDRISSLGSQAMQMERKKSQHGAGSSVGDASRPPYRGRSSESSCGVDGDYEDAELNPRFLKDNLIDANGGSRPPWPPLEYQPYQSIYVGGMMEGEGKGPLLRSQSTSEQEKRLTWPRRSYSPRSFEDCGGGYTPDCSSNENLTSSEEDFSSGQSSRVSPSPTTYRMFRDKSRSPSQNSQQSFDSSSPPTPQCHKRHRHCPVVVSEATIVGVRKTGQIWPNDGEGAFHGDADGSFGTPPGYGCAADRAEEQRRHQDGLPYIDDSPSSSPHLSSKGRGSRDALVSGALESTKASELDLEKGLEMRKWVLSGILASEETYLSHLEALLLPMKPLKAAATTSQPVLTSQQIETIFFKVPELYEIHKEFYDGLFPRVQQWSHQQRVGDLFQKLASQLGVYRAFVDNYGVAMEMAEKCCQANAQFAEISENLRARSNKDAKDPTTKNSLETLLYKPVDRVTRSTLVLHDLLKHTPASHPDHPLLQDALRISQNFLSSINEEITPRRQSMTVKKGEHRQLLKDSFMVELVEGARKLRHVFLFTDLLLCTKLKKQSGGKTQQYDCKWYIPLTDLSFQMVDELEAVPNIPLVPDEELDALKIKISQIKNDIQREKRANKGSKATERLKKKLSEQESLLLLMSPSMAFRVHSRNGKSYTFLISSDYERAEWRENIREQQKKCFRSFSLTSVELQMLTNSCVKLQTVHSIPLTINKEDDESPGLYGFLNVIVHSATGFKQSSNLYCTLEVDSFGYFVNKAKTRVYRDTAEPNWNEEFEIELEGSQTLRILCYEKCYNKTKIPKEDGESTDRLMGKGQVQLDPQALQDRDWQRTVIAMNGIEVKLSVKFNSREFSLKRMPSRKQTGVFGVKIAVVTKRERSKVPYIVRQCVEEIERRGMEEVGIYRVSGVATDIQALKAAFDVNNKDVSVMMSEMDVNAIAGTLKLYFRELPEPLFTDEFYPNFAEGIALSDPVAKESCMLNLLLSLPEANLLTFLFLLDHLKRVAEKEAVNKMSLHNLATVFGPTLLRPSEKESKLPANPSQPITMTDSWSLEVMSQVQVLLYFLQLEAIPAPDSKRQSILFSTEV

Row | SMILES | IC50 (Bcr/Abl fusion protein) | IC50 [1] | inhibition at 30 µM (BaF3 [2]) | inhibition at 10 µM (BaF3 [3]) | inhibition at 2 µM (BaF3 [4]) | Activity (HEK293) | Activity (THP-1) | IC50 (K562)
1 | CC(C)(C)[C@H](NC(=O)c1ccc(-c2ccnc(NS(C)(=O)=O)c2)cc1)C(=O)Nc1ccc(Cl)c(C(F)(F)F)c1 | 3.93 nM | 66.9 nM | 100% | 36.1% | 8.95% | 81% | 100% | 0.93 nM
2 | CC(C)(C)OC[C@H](NC(=O)c1cccc(-c2ccc(NC(=O)C(C)(C)C)nc2)c1)C(=O)Nc1ccc(Cl)c(C(F)(F)F)c1 | 8.61 nM | 436 nM | -5.67% | – | – | 72% | 73% | 1.26 nM
3 | CC(C)(C)OC[C@H](NC(=O)c1cccc(-c2ccc(NC(=O)C3CC3)nc2)c1)C(=O)Nc1ccc(Cl)c(C(F)(F)F)c1 | 3.75 nM | 204 nM | -4.27% | – | – | 92% | 74% | –
4 | CCN(CC)C(=O)c1cncc(-c2ccc(C(=O)N[C@@H](CO)C(=O)Nc3ccc(Cl)c(C(F)(F)F)c3)cc2)c1 | 0.27 nM | 261 nM | -1.59% | – | – | 74% | 100% | 12.2 nM
5 | CC(C)(C)OC[C@H](NC(=O)c1ccc(-c2ccnc(NS(C)(=O)=O)c2)cc1)C(=O)Nc1ccc(Cl)c(C(F)(F)F)c1 | 0.33 nM | 51 nM | 96.7% | 27.6% | 7.49% | 93% | 94% | 0.19 nM
6 | CC(C)(C)C(=O)Nc1cc(-c2ccc(C(=O)N[C@H](C(=O)Nc3ccc(Cl)c(C(F)(F)F)c3)C(C)(C)C)cc2)ccn1 | 16.8 nM | 481 nM | 8.24% | – | – | 87% | 94% | 5.36 nM
7 | CC(=O)Nc1cc(-c2ccc(C(=O)N[C@H](C(=O)Nc3ccc(Cl)c(C(F)(F)F)c3)C(C)(C)C)cc2)ccn1 | 9.9 nM | 180 nM | 99.8% | 31.8% | 4.64% | 88% | 68% | 3.31 nM
8 | CCN(CC)C(=O)c1cncc(-c2cccc(C(=O)N[C@@H](COC(C)(C)C)C(=O)Nc3ccc(Cl)c(C(F)(F)F)c3)c2)c1 | 33 nM | 132 nM | 58.4% | – | – | 100% | 84% | 8.11 nM
9 | CC(C)(C)C(=O)Nc1ccc(-c2cccc(C(=O)N[C@@H](CO)C(=O)Nc3ccc(Cl)c(C(F)(F)F)c3)c2)cn1 | 7.29 nM | 504 nM | – | 96.8% | 0.99% | 100% | 77% | 4.86 nM
10 | CC(C)(C)OC[C@H](NC(=O)c1ccc(-c2cncc(C(=O)NC3CC3)c2)cc1)C(=O)Nc1ccc(Cl)c(C(F)(F)F)c1 | 15.5 nM | 128 nM | 69.7% | – | – | 84% | 79% | 2.5 nM
11 | CC(=O)Nc1cc(-c2ccc(C(=O)N[C@@H](CO)C(=O)Nc3ccc(Cl)c(C(F)(F)F)c3)cc2)ccn1 | 0.8 nM | 136 nM | 58.8% | – | – | 91% | 72% | 2.64 nM
12 | Cc1ccc(C(=O)Nc2ccc(CN3CCN(C)CC3)c(C(F)(F)F)c2)cc1C#Cc1cnc2cccnn12 [PONATINIB] | – | – | – | – | – | 55% | 3% | 0.049 nM
13 | CCN(CC)C(=O)c1cncc(-c2ccc(C(=O)N[C@H](C(=O)Nc3ccc(Cl)c(C(F)(F)F)c3)C(C)(C)C)cc2)c1 | 4.5 nM | 185 nM | 42.8% | – | – | 97% | 56% | 10.2 nM
14 | Nc1cc(-c2ccc(C(=O)N[C@@H](CO)C(=O)Nc3ccc(Cl)c(C(F)(F)F)c3)cc2)ccn1 | 0.24 nM | 99 nM | -3.39% | – | – | 83% | 100% | 0.36 nM
15 | CCN(CC)C(=O)c1cncc(-c2ccc(C(=O)N[C@@H](COC(C)(C)C)C(=O)Nc3ccc(Cl)c(C(F)(F)F)c3)cc2)c1 | 5.46 nM | 144 nM | 35% | – | – | 73% | 100% | 6.26 nM
16 | CC(C)(C)OC[C@H](NC(=O)c1cccc(-c2ccc(N)nc2)c1)C(=O)Nc1ccc(Cl)c(C(F)(F)F)c1 | 0.27 nM | 105 nM | -5% | – | – | 96% | 100% | 1.27 nM

Row | SMILES | IC50 (Bcr/Abl fusion protein) | IC50 [1] | inhibition at 30 µM (BaF3 [2]) | inhibition at 10 µM (BaF3 [3]) | inhibition at 2 µM (BaF3 [4]) | Activity (HEK293) | Activity (THP-1) | IC50 (K562)
17 | CC(=O)Nc1ccc(-c2cccc(C(=O)N[C@@H](CO)C(=O)Nc3ccc(Cl)c(C(F)(F)F)c3)c2)cn1 | 0.33 nM | 66 nM | 90% | 24.5% | -1.17% | 85% | 100% | 0.85 nM
18 | CS(=O)(=O)Nc1cc(-c2ccc(C(=O)N[C@@H](CO)C(=O)Nc3ccc(Cl)c(C(F)(F)F)c3)cc2)ccn1 | 0.33 nM | 87 nM | 5.71% | – | – | 78% | 87% | 0.13 nM
19 | CC(C)(C)C(=O)Nc1ccc(-c2cccc(C(=O)N[C@H](C(=O)Nc3ccc(Cl)c(C(F)(F)F)c3)C(C)(C)C)c2)cn1 | 26.5 nM | 351 nM | 98.1% | 100% | 99.9% | 81% | 73% | 0.97 nM
20 | CC(C)(C)[C@H](NC(=O)c1cccc(-c2cncc(C(=O)NC3CC3)c2)c1)C(=O)Nc1ccc(Cl)c(C(F)(F)F)c1 | 34 nM | 207 nM | – | 65.6% | 7.2% | 90% | 100% | 8.47 nM
21 | O=C(NC1CC1)c1cncc(-c2ccc(C(=O)N[C@@H](CO)C(=O)Nc3ccc(Cl)c(C(F)(F)F)c3)cc2)c1 | 1.11 nM | 60 nM | 82.5% | – | – | 89% | 58% | 1.68 nM
22 | CC(=O)Nc1ccc(-c2cccc(C(=O)N[C@@H](COC(C)(C)C)C(=O)Nc3ccc(Cl)c(C(F)(F)F)c3)c2)cn1 | 56 nM | 723 nM | 77.1% | – | – | 98% | 64% | 19.4 nM
23 | CC(C)(C)OC[C@H](NC(=O)c1ccc(-c2ccnc(NC(=O)C(C)(C)C)c2)cc1)C(=O)Nc1ccc(Cl)c(C(F)(F)F)c1 | 4.44 nM | 303 nM | -3.86% | – | – | 90% | 63% | 3.12 nM
24 | CC(C)(C)OC[C@H](NC(=O)c1ccc(-c2ccnc(C(=O)NC3CC3)c2)cc1)C(=O)Nc1ccc(Cl)c(C(F)(F)F)c1 | 11.4 nM | 183 nM | – | 22.5% | 0% | 84% | 62% | 10.7 nM
25 | CS(=O)(=O)Nc1ccc(-c2cccc(C(=O)N[C@@H](CO)C(=O)Nc3ccc(Cl)c(C(F)(F)F)c3)c2)cn1 | 0.93 nM | 217 nM | 62.8% | – | – | 94% | 83% | 1.33 nM
26 | CC(C)(C)OC[C@H](NC(=O)c1cccc(-c2cncc(C(=O)NC3CC3)c2)c1)C(=O)Nc1ccc(Cl)c(C(F)(F)F)c1 | 9.3 nM | 608 nM | – | 94.1% | 1.93% | 95% | 69% | 8.86 nM
27 | CC(=O)Nc1ccc(-c2cccc(C(=O)N[C@H](C(=O)Nc3ccc(Cl)c(C(F)(F)F)c3)C(C)(C)C)c2)cn1 | 7.26 nM | 165 nM | – | 100% | 7.81% | 86% | 100% | 10.1 nM
28 | CC(C)(C)[C@H](NC(=O)c1ccc(-c2cncc(C(=O)NC3CC3)c2)cc1)C(=O)Nc1ccc(Cl)c(C(F)(F)F)c1 | 8.02 nM | 140 nM | 100% | 42.6% | 5.84% | 91% | 100% | 3.34 nM
29 | Nc1ccc(-c2cccc(C(=O)N[C@@H](CO)C(=O)Nc3ccc(Cl)c(C(F)(F)F)c3)c2)cn1 | 1.6 nM | 148 nM | 88.3% | 15.2% | -0.03% | 93% | 84% | 2.13 nM
30 | CCN(CC)C(=O)c1cncc(-c2cccc(C(=O)N[C@H](C(=O)Nc3ccc(Cl)c(C(F)(F)F)c3)C(C)(C)C)c2)c1 | 6.69 nM | 148 nM | 50.8% | – | – | 100% | 55% | 2.66 nM
31 | CCN(CC)C(=O)c1cncc(-c2cccc(C(=O)N[C@@H](CO)C(=O)Nc3ccc(Cl)c(C(F)(F)F)c3)c2)c1 | 3.57 nM | 295 nM | 53.2% | – | – | 84% | 75% | 4.92 nM
32 | O=C(NC1CC1)c1cncc(-c2cccc(C(=O)N[C@@H](CO)C(=O)Nc3ccc(Cl)c(C(F)(F)F)c3)c2)c1 | 1.35 nM | 348 nM | 66.1% | – | – | 99% | 72% | 2.79 nM

From ChEMBL document CHEMBL6083208, “Integrating amino acids into Bcr-Abl inhibitors: design, synthesis, biological evaluation, and in silico studies” (RSC Med Chem, 2024)
